Assay type in all cases: cell-based
For assay [1], the system named is log phase NDM-1 Klebsiella pneumoniae subsp. pneumoniae (BAA2472). Nature of the assay: chequerboard method, zidovudine and meropenem. Also noted: scale not given here. As for the experimental part:
The chequerboard method used in Example 1 followed the protocols detailed in Antimicrob Chemo (2013) 68, 374-384.
Log phase growth of NDM-1 Klebsiella pneumoniae subsp. pneumoniae was carried out as described in the art. Zidovudine and meropenem were obtained from commercially available sources. The effects of the combination of the present invention were examined by calculating the fractional inhibitory concentration index (FICI) of each combination, as follows:
(MIC of drug A, tested in combination)/(MIC of drug A, tested alone)+(MIC of drug B, tested in combination)/(MIC of drug B, tested alone).
The interaction of the combination was defined as showing synergy if the FICI was ≤0.5, no interaction if the FICI was >0.5 but <4.0 and antagonism if the FICI was >4.0.

The subject of assay [2] is log phase NDM-1 Escherichia coli (BAA2469). The assay is described as follows: time-kill, zidovudine and meropenem. The settings on record: 24 hours. The method, then:
(§1) As described hereinabove, time-kill methods are another accepted test for ascertaining the presence or absence of synergy, and involve comparing the dynamic effect of a drug combination with each drug alone when assessing the effect on bacterial log or stationary-growth over time.
(§2) • 1. Bacterial strain used: BAA2471 or BAA2469 strain of Escherichia coli • 2. Growth of bacteria: Log phase growth of BAA2471 or BAA2469 was carried out according to known methods in the art, e.g. SOP R-005-00 Log Phase Growth of Bacteria. • 3. Compound preparation: zidovudine and mereopenem were both obtained from commercial sources (e.g. Sigma-Aldrich). • 4. The overnight culture was diluted with nutrient broth (Oxoid) to 10^7 CFU/ml and 280 μl and 290 μl of the culture was added to each combination well and drug respectively, to make the final concentration of 300 μl. • 5. Incubation of the compounds with the bacterial suspension was carried out for 24 hours. At 0, 2, 4, 7 and 24 hours, CFU counts were performed to measure the kill effects of the drug combination. Results and Discussion

Assay [3] deals with log phase NDM-1 Escherichia coli (BAA2471). Nature of the assay: time-kill, zidovudine and meropenem. The settings on record: 24 hours. The method, then: as §1, §2
The subject of assay [4] is log phase NDM-1 Klebsiella pneumoniae (BAA2470). Nature of the assay: chequerboard method, zidovudine, meropenem and colistimethate sodium. Also noted: chequerboard reading: scale not given here. The method, then: The chequerboard method used in Example 1 was followed, according to the protocols detailed in Antimicrob Chemo (2013) 68, 374-384. The bacterial strain of NDM-1 Klebsiella pneumoniae was BAA2470. Log phase growth of BAA2470 was carried out as described in the art. Zidovudine, meropenem and colistimethate sodium were obtained from commercially available sources. The effects of the triple combination of the present invention were examined by calculating the MIC for each drug alone and in combination.

In assay [5] the test system is log phase NDM-1 K. pneumoniae subsp. pneumoniae (BAA2470). The assay is described as follows: time-kill, zidovudine, meropenem and CMS. The method, then: as §2, with “BAA2470” for “BAA2471 or BAA2469”, “K. pneumoniae subsp. pneumoniae” for “Escherichia coli”, “zidovudine, mereopenem” for “zidovudine”, “colistimethate sodium” for “mereopenem”, “were” for “were both”, “combination.” for “combination. Results and Discussion”

Where [6] appears, read: zidovudine added at 0.25 μg/ml to the meropenem and CMS combination.

Read-outs that look alike come from different tables or passages of the source.

A word on the MIC: it is the lowest concentration found to suppress growth. With `C[C@@H](O)[C@H]1C(=O)N2C(C(=O)O)=C(S[C@@H]3CN[C@H](C(=O)N(C)C)C3)[C@H](C)[C@H]12` [meropenem], the chequerboard reading is recorded as 0.40 in assay [1] (zidovudine 0, meropenem 0.25); 0.41 in assay [1] (zidovudine 0, meropenem 0.5); 0.45 in assay [1] (zidovudine 0, meropenem 1); 0.35 in assay [1] (zidovudine 0, meropenem 2); 0.34 in assay [1] (zidovudine 0, meropenem 4); 0.44 in assay [1] (zidovudine 0, meropenem 8). Further, the chequerboard reading in assay [1] (zidovudine 0, meropenem 16) came out at 0.44; in assay [1] (zidovudine 0, meropenem 32), 0.25; in assay [1] (zidovudine 0, meropenem 64), 0.21; in assay [1] (zidovudine 0, meropenem 128), 0.20; in assay [1] (zidovudine 0, meropenem 256), 0.05; in assay [4] (meropenem 8, CMS 0, zidovudine 0 μg/ml), 0.69. Moreover, the chequerboard reading is given as 0.70 in assay [4] (meropenem 16, CMS 0, zidovudine 0 μg/ml); 0.63 in assay [4] (meropenem 32, CMS 0, zidovudine 0 μg/ml); 0.55 in assay [4] (meropenem 64, CMS 0, zidovudine 0 μg/ml); 0.36 in assay [4] (meropenem 128, CMS 0, zidovudine 0 μg/ml); 0.05 in assay [4] (meropenem 256, CMS 0, zidovudine 0 μg/ml); 0.05 in assay [4] (meropenem 512, CMS 0, zidovudine 0 μg/ml). The time-kill effect result in assay [2] (meropenem alone 8 mg/L) and in assay [3] (meropenem alone 256 mg/L) was “little or no effect” each time. Besides, the MIC is 256 µg/mL in assay [4] (Klebsiella pneumoniae, BAA2470); 64 µg/mL in assay [4] (Klebsiella pneumoniae, BAA2470, zidovudine added at 0.5 μg/ml to the meropenem and CMS combination, read-out: MIC); 16 µg/mL in assay [4] (Klebsiella pneumoniae, BAA2470, zidovudine added at 1 μg/ml to the meropenem and CMS combination, read-out: MIC); “remained the same” in assay [4] (setting [6]). Also, in assay [5] (meropenem alone 64 μg/ml, at 4 hours, followed by a regrowth), the “kill of the bacterium” value is listed as “about 3 logs”.
`Cc1cn([C@H]2C[C@H](N=[N+]=[N-])[C@@H](CO)O2)c(=O)[nH]c1=O` [zidovudine, 1-[(2R,4S, 5S)-4-Azido-5-(hydroxymethyl)oxolan-2-yl]-5-methylpyrimidine-2,4-dione]: the chequerboard reading in assay [1] (zidovudine 0.5, meropenem 0) amounted to 0.16; in assay [1] (zidovudine 1, meropenem 0), 0.22; in assay [1] (zidovudine 2, meropenem 0), 0.10; in assay [1] (zidovudine 4, meropenem 0) it was 0.23; in assay [1] (zidovudine 8, meropenem 0), 0.23; in assay [1] (zidovudine 16, meropenem 0), 0.04. The chequerboard reading was 0.26 in assay [1] (zidovudine 32, meropenem 0); 0.31 in assay [4] (meropenem 0, CMS 0, zidovudine 0.25 μg/ml); 0.17 in assay [4] (meropenem 0, CMS 0, zidovudine 0.50 μg/ml); 0.11 in assay [4] (meropenem 0, CMS 0, zidovudine 1 μg/ml); 0.08 in assay [4] (meropenem 0, CMS 0, zidovudine 2 μg/ml). Also, the time-kill effect entry in assay [2] (zidovudine alone 16 mg/L) and in assay [3] (zidovudine alone 32 mg/L) was “little or no effect” in each case. Further, the “kill of the bacterium” value in assay [5] (zidovudine alone 16 μg/ml, at 2 hours, then growth occurred) is given as “one”.
In the case of colistimethate sodium, the chequerboard reading in assay [4] (meropenem 0, CMS 0.031, zidovudine 0 μg/ml) was found to be 0.66; in assay [4] (meropenem 0, CMS 0.063, zidovudine 0 μg/ml) it was 0.61; in assay [4] (meropenem 0, CMS 0.125, zidovudine 0 μg/ml) it was 0.58; in assay [4] (meropenem 0, CMS 0.25, zidovudine 0 μg/ml), 0.50; in assay [4] (meropenem 0, CMS 0.5, zidovudine 0 μg/ml) it was 0.51; in assay [4] (meropenem 0, CMS 1, zidovudine 0 μg/ml), 0.47. Also, the chequerboard reading came out at 0.46 in assay [4] (meropenem 0, CMS 2, zidovudine 0 μg/ml); 0.42 in assay [4] (meropenem 0, CMS 4, zidovudine 0 μg/ml); 0.42 in assay [4] (meropenem 0, CMS 8, zidovudine 0 μg/ml); 0.23 in assay [4] (meropenem 0, CMS 16, zidovudine 0 μg/ml); 0.05 in assay [4] (meropenem 0, CMS 32, zidovudine 0 μg/ml). The MIC in assay [4] (without zidovudine) was 32 µg/mL; in assay [4] (setting [6]), 8 µg/mL; in assay [4] (zidovudine added at 0.5 μg/ml to the meropenem and CMS combination), 0.5 µg/mL; in assay [4] (zidovudine added at 1 μg/ml to the meropenem and CMS combination), 0.25 µg/mL. Moreover, in assay [5] (CMS alone 4 ug/ml), the time-kill effect result was “no effect”.

The record behind these values is patent US10888575B2, “Combination comprising zidovudine and a carbapenem” (HELPERBY THERAPEUTICS LIMITED, priority 2016, dated 2021).
